Measurements published in patent US5393755A, “Polycyclic guanine derivatives” (priority 1992, dated 1995).

Tests used:
[1] = target: T1, calcium-calmodulin dependent phosphodiesterase (CaM-PDE) (Bos taurus, UniProt P14100); assay: Phosphodiesterase Inhibition In Vitro: CaM-PDE; type: biochemical, bovine (aorta); conditions: 1 μM 3H-cGMP substrate, pH 7.5, 25 minutes, room temperature, with calmodulin and CaCl2
T1 construct: partially pure enzyme obtained from bovine aorta homogenates; from tissue; host or cells: bovine aorta homogenates
Procedure: (§1) Compounds are evaluated for inhibition of two phosphodiesterase enzymes which hydrolyze cyclic guanosine monophosphate (cGMP). The first enzyme, calcium-calmodulin dependent phosphodiesterase (CaM-PDE), is a partially pure enzyme obtained from bovine aorta homogenates and purified by DEAE-cellulose and calmodulin-affinity chromatography. The enzyme is activated several fold by Ca-calmodulin and is selective for cGMP, although it will also hydrolyze cAMP. […] Bovine aorta homogenates and primary cultures of bovine aortic endothelial and vascular smooth muscle cells contain an enzyme with properties very similar to the lung isozyme.
(§2) The enzyme assay is performed using a Biomek Automated Pipetting Station. Compounds are dissolved in distilled water or DMSO and diluted with 10% DMSO.
(§3) Assays contain the following components:
(§4) 50 mM Tris-HCl, pH 7.5, 5 mM magnesium chloride
(§5) 0.5 mg/ml snake venom alkaline phosphatase
0.1 μM Calmodulin and 1 mM CaCl2 (for CaM-PDE only)
(§6) Assays are initiated by addition of enzyme and stopped by addition of 10 mM isobutylmethylxanthine, a general phosphodiesterase inhibitor. Assays are performed for 25 minutes at room temperature to achieve 5-10% hydrolysis of substrate. The negatively charged substrates are then separated from guanosine by binding to an anion-exchange resin (AG1-X8) and centrifugation or filtration, and the product is quantitated by scintillation counting in counts per minute (cpm) of the remaining soluble material. Percent inhibition is calculated as follows:
(§7) % Inhibition=100-[(cpm compound-blank)/(cpm control-blank)×100]
(§8) Activity is expresssed as the IC50 value, i.e. the concentration required to inhibit activity of enzyme by 50 per cent.

[2] = target: cGMP phosphodiesterase (cGMP-PDE) (Bos taurus, UniProt Q28156); assay: biochemical; parameters: species or system bovine (lung); conditions: 1 μM 3H-cGMP substrate, pH 7.5, 25 minutes, room temperature
Procedure: as §1, §2, §3, §4, §5, §6, §7, §8

[3] = tested on: spontaneously hypertensive rats (SHR); assay: Antihypertensive Activity in Rats (conscious SHR, oral); type: in vivo, rat (spontaneously hypertensive; conditions: fasted SHR males
Text: The present compounds are useful in inhibiting the phosphodiesterase enzymes. These phosphodiesterase enzymes are known to hydrolyze cGMP in smooth muscle. High levels of cGMP are associated with the relaxation of vascular smooth muscle, with a consequent subsequent reduction in blood pressure. Thus, it is believed that by inhibiting these phosphodiesterase enzymes, cGMP levels in muscle will be either maintained or increased with a subsequent reduction in blood pressure. In vivo antihypertensive activity is determined orally in spontaneously hypertensive rats (SHR). The ability of the compounds of the present invention to lower blood pressure can be assessed in vivo in conscious spontaneously hypertensive rats (SHR). SHR males are purchased from Taconic Farms, Germantown, N.Y. and are approximately 16-18 weeks old when anesthetized with ether. The caudal (ventral tail) artery is cannulated with polyethylene tubing (PE50) and blood pressure and heart rate are recorded as described by Baum, T. et. al, J. Cardiovasc. Pharmacol. Vol 5, pp. 655-667, (1983). Rats are placed into plastic cylindrical cages where they rapidly recover consciousness. Blood pressure and heart rate are allowed to stabilize for approximately 90 minutes prior to compound administration. Compounds are administered orally as solutions or suspensions in 0.4% aqueous methylcellulose vehicle via a feeding needle. […] Activity is expressed as the fall in mean blood pressure (MBP) in millimeters of mercury (mm Hg). Compound-induced changes are compared with the changes in an appropriate placebo group.

| Compound | IC50 [1] [nM] | IC50 [2] [nM] | SHR Antihypertensive Fall in MBP ([3]; Dose 25 mpk) [mmHg] | SHR Antihypertensive Fall in MBP ([3]; Dose 5 mpk) [mmHg] | SHR Antihypertensive Fall in MBP ([3]; Dose 10 mpk) [mmHg] |
| --- | --- | --- | --- | --- | --- |
| COC(=O)c1nc2c(n1Cc1ccccc1)C(=O)N(C)C1=N[C@@H]3CCC[C@@H]3N12 (relative stereo) [Example 28, cis-3,4,5,6a,7,8,9,9a-Octahydro-5-methyl-4-oxo-3-(phenylmethyl)cyclopent[4,5]imidazo[2,1-b]purin-2-carboxylic acid, methyl ester] | 200 | 200 | 19 | – | – |
| Cc1nc2c(n1Cc1ccccc1)C(=O)N(C)C1=N[C@@H]3CCC[C@@H]3N12 [Example 10, 5,6a(R),7,8,9,9a(S)-Hexahydro-2,5-dimethyl-3-(phenylmethyl)cyclopent[4,5]imidazo[2,1-b]purin-4(3H)-one] | 300 | – | 45 | – | – |
| CN1C(=S)c2c(ncn2Cc2ccccc2)N2C1=N[C@@H]1CCC[C@@H]12 (relative stereo) [Example 20, cis-5,6a,7,8,9,9a-Hexahydro-5-methyl-3-(phenylmethyl)cyclopenta[4,5]imidazo[2,1-b]purin-4(3H)-thione] | 40 | 400 | 6 | – | – |
| CN1C(=O)c2c(ncn2Cc2ccccc2)N2CC3(CCCC3)N=C12 [Example 34, 5'-Methyl-3'-(phenylmethyl)-spiro[cyclopentane-1,7'(8'H)-(3'H)-imidazo[2,1-b]purin]-4'(5'H)one] | 100 | 100 | 40 | – | – |
| Cc1nc2c(n1Cc1ccccc1)C(=O)N(C)C1=NC34CCCC3CCC4N12 (single isomer, unassigned; (+)) [Example 39, (+) 6a,7,8,9,9a,10,11,11a-Octahydro-2,5-dimethyl-3-phenylmethyl-3H-pentaleno[6a',1':4,5]imidazo[2,1-b]purin-4(5H)-one] | 100 | 100 | 40 | – | – |
| CN1C(=O)c2c(ncn2Cc2ccc(Cl)cc2)N2C1=N[C@@H]1CCC[C@@H]12 (relative stereo) [Example 21, cis-5,6a,7,8,9,9a-Hexahydro-5-methyl-3-(4-chlorophenylmethyl)cyclopenta[4,5]imidazo[2,1-b]purin-4(3H)-one] | 3300 | 400 | 20 | – | – |
| Cc1nc2c(n1Cc1ccccc1)C(=O)N(C)C1=N[C@@H]3CCCC[C@@H]3N12 (relative stereo) [Example 12, cis-6a,7,8,9,10,10a-Hexahydro-2,5-dimethyl-3-(phenylmethyl)-3H-benzimidazo[2,1-b]purin-4(5H)-one] | 200 | 200 | 38 | – | – |
| CN1C(=O)c2c(ncn2Cc2ccccc2)N2C1=N[C@@H]1CCC[C@@H]12 [Example 35, cis-5,6a(R),7,8,9,9a(S)-Hexahydro-5-methyl-3-(phenylmethyl)cyclopent[4,5]imidazo[2,1-b]purin-4(3H)one] | 400 | 300 | 41 | – | – |
| Cc1nc2c([nH]1)C(=O)N(C)C1=NC34CCCC3CCC4N12.Cl (single isomer, unassigned; (+)) [Example 41a, (+)-6a,7,8,9,9a,10,11,11a-Octahydro-2,5-dimethyl-3H-pentaleno[6a',1':4,5]imidazo[2,1-b]purin-4(5H)-one, hydrochloride] | 200 | 100 | 67 | 45 | 52 |
| CCc1nc2c(n1Cc1ccccc1)C(=O)N(C)C1=N[C@@H]3CCCC[C@@H]3N12 (relative stereo) [Example 16, cis-6a,7,8,9,10,10a-Hexahydro-5-methyl-2-ethyl-3-(phenylmethyl)-3H-benzimidazo[2,1-b]purin-4(5H)-one] | 100 | 3000 | 23 | – | – |
| Cc1nc2c(n1Cc1ccccc1)C(=O)N(C)C1=N[C@@H]3CCC[C@@H]3N12 (relative stereo) [Example 9, cis-5,6a,7,8,9,9a-Hexahydro-2,5-dimethyl-3-(phenylmethyl)cyclopent[4,5]imidazo[2,1-b]purin-4-(3H)-one] | 600 | – | 36 | – | – |
| CN1C(=O)c2c(ncn2Cc2ccccc2)N2C1=N[C@@H]1CCCC[C@@H]12 (relative stereo) [Example 3, cis-6a,7,8,9,10,10a-Hexahydro-5-methyl-3-(phenylmethyl)-3H-benzimidazo[2,1-b]purin-4(5H)-one] | 100 | 1400 | 22 | – | – |
| CN1C(=O)c2c(ncn2Cc2ccccc2)N2C1=N[C@@H]1CCC[C@@H]12 (relative stereo) [Example 1, cis-5,6a,7,8,9,9a-Hexahydro-5-methyl-3-(phenylmethyl)cyclopent[4,5]imidazo[2,1-b]purin-4-one] | 300 | 400 | 30 | – | – |
| Cc1nc2c(n1Cc1ccccc1)C(=O)N(C)C1=N[C@@H]3CCCCC[C@@H]3N12 (relative stereo) [Example 14, cis-5,6a,7,8,9,9a-Hexahydro-2,5-dimethyl-3-(phenylmethyl)cyclohept[6,7]imidazo[2,1-b]purin-4(3H)-one] | 300 | 900 | 20 | – | – |
| CN1C(=O)c2c(ncn2CC2CCCCC2)N2C1=N[C@@H]1CCC[C@@H]12 (relative stereo) [Example 22, cis-5,6a,7,8,9,9a-Hexahydro-5-methyl-3-(cyclohexylmethyl)cyclopent[4,5]imidazo[2,1-b]purin-4(3H)-one] | 200 | 200 | 15 | – | – |
| Cc1nc2c(n1Cc1ccccc1)C(=O)N(C)C1=NC3(CCCC3)CN12 [Example 34a, 2',5'-Dimethyl-3'-(phenylmethyl)spiro[cyclopentane-1,7'(8'H)-(3'H)-imidazo[2,1-b]purin]-4'(5'H)one] | 300 | 800 | 58 | – | – |
| Cc1nc2c([nH]1)C(=O)N(C)C1=N[C@@H]3CCC[C@@H]3N12 [Example 19a, cis-5,6a(R),7,8,9,9a(S)-Hexahydro-2,5-di-methylcyclopent[4,5]imidazo[2,1-b]purin-4(3H)-one] | 3000 | 300 | 40 | – | – |
